Test results: patent publication US20230105599A1, “Aqueous Formulations Containing Povidone Iodine for Effective Treatment and Prevention of Virus Infections” (priority 2020, published 2023)
Like-named read-outs stand apart in the source and are kept apart here.

Key:
Format in all cases: cell-based
Human Adenovirus Type 5 = experiment: In-vitro anti-viral (virucidal) assay, cytopathic effect study with human AE549 cells; conditions: 70% ethanol
Method: To determine whether contact with aqueous formulation of this invention containing 0.6% PVP-I inactivates (“kills”) virus, the aqueous formulation was mixed directly with virus for 30±5 minutes, then neutralized and the surviving virus was quantified.

SARS-CoV-2 = conditions: 45% ethanol control, 37° C.; for Viral Titer: mean of 3 ± SD
[1] = tested on: Influenza Virus A H1N1, California July 2009; experiment: In vitro virucidal assay, endpoint dilution CCID50 on MDCK cells; conditions: 95% ethanol control, 37° C.
Method: Formulation B containing 0.6% PVP-I (for nasal spray) was tested for virucidal assay against influenza virus (Influenza Virus A H1N1, California July 2009). Formulation B was diluted with artificial nasal fluid as follows: neat, 1/1.8, 1/3.2 and 1/10. Other controls were 95% ethanol and MEM solution. Virus solution was added to test dilution at 1/10 and incubated for 30 seconds and 2 minutes at 37° C. And thus, the final concentration of solution tested were 90%, 50%, 28% and 9%. Following the incubation period, samples were neutralized by a 1/10 dilution in test media containing 10% FBS. The surviving virus in each tube was determined using a standard endpoint dilution CCID50 assay as follows. Samples were diluted 1/10 in series and each dilution added to 4 replicate columns of 96-well plates seeded with 80-100% confluent MDCK cells. Plates were incubated for 6 days at 37° C. with 5% CO2 then scored for the presence or absence of cytopathic effect (CPE). Virus titer (CCID50) was calculated using the Reed-Muench method (1948). The log reduction value (LRV) of the compound compared to the virus control was calculated. The entire procedure was repeated in triplicate. Toxicity controls were performed to show whether test compound toxicity would confound results by killing the cells in the absence of virus.

Structure (SMILES): CCO [Ethanol]
- virucidal effect of ethanol control (Human Adenovirus Type 5): fully effective
- LRV (log reduction value) (SARS-CoV-2; contact time 0.5 min): 3.5
- Viral Titer (SARS-CoV-2; contact time 0.5 min): <1.7 ± 0.0 Log10 CCID50 of virus per mL
- LRV (log reduction value) (SARS-CoV-2; contact time 2 min): 1.9
- Viral Titer (SARS-CoV-2; contact time 2 min): <1.7 ± 0.0 Log10 CCID50 of virus per mL
- LRV (log reduction value) (SARS-CoV-2; contact time 10 min): 3.3
- Viral Titer (SARS-CoV-2; contact time 10 min): <0.67 ± 0.0 Log10 CCID50 of virus per mL
- LRV (log reduction value) ([1]; contact time 0.5 min): 1.5
- Viral Titer ([1]; contact time 0.5 min): 4.5 Log10 CCID50 of virus per mL
- LRV (log reduction value) ([1]; contact time 2 min): 4.4
- Viral Titer ([1]; contact time 2 min): 2.3 Log10 CCID50 of virus per mL
